Assay results from patent US8092833B2, “Compositions containing inclusion complexes” (California Institute of Technology, priority 2000, dated 2012).
Where a SMILES comes first, the peptide text is derived from it. The star is where a group is joined. Adamantane1carbonyl = O=C(C12CC3CC(CC(C3)C1)C2)*; {FITC} = fluorescein (FITC) label; Ad = adamantane

How the values were obtained:
[1] = system: HUH-7 cells; experiment: FITC-Oligo uptake by HUH-7 cells after post-complexation pegylation, FACS (Example 41); format: cell-based; conditions: 3+/− charge ratio, 1:1 PEG to cyclodextrin, 15 minute incubation
Procedure: Step 1: Transfection mixtures were prepared as follows: An equal volume of cationic, 12 was added to 3 μg of FITC-Oligos (0.1 μg/μL in water) at a 3+/−charge ratio of polymer to DNA. To the complexes was added free PEG or Ad-PEG5000 (as prepared in Example 40) at a 1:1 PEG to cyclodextrin ratio.
Step 2. HUH-7 cells were plated at 3×10^5 cells/well in 6 well plates and maintained in 4 mLs of DMEM+10% FBS+Antibiotic/Antimycotic for 24 hours. After 24 hours, the cells were washed with PBS and 1 mL of Optimem containing the transfection mixtures of Step 1 was added to the cells. After a 15 minute incubation, the transfection media was removed, the cells were washed with PBS and 1 mL of Optimem was added to each well. The cells were incubated for another 30 minutes at 37° C. The cells were then washed with Cell Scrub Buffer (Gene Therapy Systems) to remove surface-associated complexes and PBS and then detached from the wells by trypsin treatment. The cells were then prepared and analyzed by FACS analysis for FITC-Oligo uptake. The modification of the complexes by Ad-PEG5000 decreases uptake of the FITC-Oligo/polymer complexes.

[2] = system: BHK-21 cells; experiment: Toxicity of GALA / GALA-Ad compositions by total protein of cell lysates (Example 35); format: cell-based; conditions: peptide added to 12/pGL-CV3 5+/−, 48 hours after transfection
Procedure: The toxicity of GALA and GALA-Ad modified compositions was determined by measuring the protein concentrations of the cell lysates obtained in the transfection experiments. BHK-21 cells were transfected with 1 μg of pGL-CV3 complexed with 12 at 5+/−charge ratio. Prior to transfection, various ratios of GALA and GALA-Ad were added to the complexes. Cell survival for transfections in the presence of GALA (solid bars) and GALA-Ad (white bars) was determined by assaying for total protein concentrations 48 hours after transfection and normalizing each sample with protein levels for untransfected cells. The protein concentrations are reported as the mean±SD of three replicates were averaged and divided by the average protein concentration of cells transfected with 12/pGL-CV3 compositions alone and reported as fraction cell survival (FIG. 7).

[3] = system: HepG2 cells; experiment: Galactose-mediated luciferase transfection of HepG2 hepatoma cells (Example 49); format: cell-based; conditions: for transfection of HepG2 cells: 12/pCMV-Luc, 2 CD:1 PEG
Procedure: HepG2 cells were plated in 24-well plates at 50,000 cells/well. 1 μg of pCMV-Luc was contacted with an equal volume of 12 and modified as indicated below. Modification with PEG-containing complexing agents was done at a 2:1 CD:PEG ratio, where CD represents the cyclodextrins in 12.
200 μL of Optimem was added to each transfection mixture and transferred to each well of cells. 4 hours after transfection, 800 μL of complete media was added to each well. The media was removed, cells washed with PBS, and 1 mL of complete media added to each well 24 hours after transfection. 48 hours after transfection cells were washed with PBS, lysed and analyzed for luciferase activity. The described transfection procedure was also executed in the presence of 1 mM glucose or 1 mM galactose as a competitive inhibitor.

[4] = Zeta potential of particulate composites modified with PEG-peptide-Ad agents (Example 49); format: physicochemical; conditions: 12/pCMV-Luc, 2 CD:1 PEG
[5] = Zeta potential of Tf-modified polyplexes (Example 58); format: physicochemical; conditions: 12/DNA 3+/−
Procedure: An equivolume aliquot of 12 was added to an aliquot of plasmid DNA ([…], 0.1 mg/mL in water) at a 3+/−charge ratio to form the particulate composite. Holo-transferrin or holo-Tf-PEG-Ad (17 mg/mL in water) was then added to the particulate composite. The particles were diluted by the addition of 1.2 mL of water and zeta potential determined by measurements on a ZetaPals dynamic light scattering instrument (Brookhaven Instruments). The unmodified holo-transferrin associates with the particulate composites by electrostatic interactions. […] The holo-Transferrin-PEG-Ad (designated Tf-PEG-Ad in FIG. 25) is likely to associate to the particulate composites by both electrostatic and inclusion compound interactions. Therefore, there is a higher association of holo-Tf-PEG-Ad with the particles, as evidenced by the continued decrease in zeta potential of the modified particles with higher concentrations of holo-Tf-PEG-Ad. At 2 nmol Tf/μg, particulate composites modified with holo-Tf-PEG-Ad are negatively charged (zeta potential ˜−7 mV).

5′-FITC-ACT GCT TAC CAG GGA TTTCAG TGC A-3′ (DNA ACTGCTTACCAGGGATTTCAGTGCA; DNA, 5' {FITC}, backbone and methylation of C not given here) [FITC-Oligo]
Percent Transfected [1]: 0%

CC(C)C[C@H](NC(=O)[C@H](C)NC(=O)[C@H](CCC(=O)O)NC(=O)[C@H](CC(C)C)NC(=O)[C@H](C)NC(=O)[C@H](CCC(=O)O)NC(=O)[C@H](C)NC(=O)[C@H](CC(C)C)NC(=O)[C@H](C)NC(=O)[C@H](CCC(=O)O)NC(=O)[C@H](C)NC(=O)[C@H](CC(C)C)NC(=O)[C@H](Cc1c[nH]cn1)NC(=O)[C@H](CCC(=O)O)NC(=O)[C@H](C)NC(=O)[C@H](CC(C)C)NC(=O)[C@H](C)NC(=O)[C@H](CCC(=O)O)NC(=O)[C@H](C)NC(=O)[C@H](CC(C)C)NC(=O)[C@H](C)NC(=O)[C@H](CCC(=O)O)NC(=O)[C@H](C)NC(=O)[C@H](CC(C)C)NC(=O)[C@H](C)NC(=O)[C@H](C)NC(=O)[C@H](CCC(=O)O)NC(=O)[C@@H](N)Cc1c[nH]c2ccccc12)C(=O)N[C@@H](C)C(=O)N[C@@H](C)C(=O)O [GALA, WEAALAEALAEALAEHLAEALAEALEALAA, reference compound] (H-WEAALAEALAEALAEHLAEALAEALEALAA-OH)
toxicity to BHK-21 cells (fraction cell survival) [2]: no observable toxicity

CC(C)C[C@H](NC(=O)[C@H](C)NC(=O)[C@H](CCC(=O)O)NC(=O)[C@H](CC(C)C)NC(=O)[C@H](C)NC(=O)[C@H](CCC(=O)O)NC(=O)[C@H](C)NC(=O)[C@H](CC(C)C)NC(=O)[C@H](C)NC(=O)[C@H](CCC(=O)O)NC(=O)[C@H](C)NC(=O)[C@H](CC(C)C)NC(=O)[C@H](Cc1c[nH]cn1)NC(=O)[C@H](CCC(=O)O)NC(=O)[C@H](C)NC(=O)[C@H](CC(C)C)NC(=O)[C@H](C)NC(=O)[C@H](CCC(=O)O)NC(=O)[C@H](C)NC(=O)[C@H](CC(C)C)NC(=O)[C@H](C)NC(=O)[C@H](CCC(=O)O)NC(=O)[C@H](C)NC(=O)[C@H](CC(C)C)NC(=O)[C@H](C)NC(=O)[C@H](C)NC(=O)[C@H](CCC(=O)O)NC(=O)[C@H](Cc1c[nH]c2ccccc12)NC(=O)C12CC3CC(CC(C3)C1)C2)C(=O)N[C@@H](C)C(=O)N[C@@H](C)C(=O)O [GALA-Ad] (Adamantane1carbonyl-WEAALAEALAEALAEHLAEALAEALEALAA-OH)
toxicity to BHK-21 cells (fraction cell survival) [2]: no observable toxicity

Galactose-PEG3400-CAEAEAEAE-Ad [Gal-PEG-Pep-Ad]
transfection in the presence of free galactose ([3]; 1 mM galactose as competitive inhibitor): inhibited | transfection of HepG2 cells [3]: enhanced transfection

Glucose-PEG3400-CAEAEAEAE-Ad [Glu-PEG-Pep-Ad]
transfection of HepG2 cells [3]: do not readily transfect cells

PEG5000-CAEAEAEAE-Ad [PEG-Pep-Ad]
zeta potential (sign) [4]: negative | transfection of HepG2 cells [3]: do not readily transfect cells

Tf-PEG-Ad: human transferrin coupled via lysine groups to Vinylsulfone-PEG3400-Ad
zeta potential ([5]; 2 nmol Tf/μg): ~−7 mV

holo-transferrin: iron-loaded unmodified transferrin
particle charge ([5]; 2 nmol Tf/μg DNA): approach neutrality
